This assay has as its target T1, Telomerase (Homo sapiens, UniProt O14746).
T1 construct: endogenous in cells; host or cells: PBMCs isolated from blood, stimulated with 10 μg/ml PHA
The assay is described as follows: Telomerase activity, TeloTAGGG telomerase PCR ELISA (TRAP assay) in PHA-treated PBMCs. It is filed as cell-based. The following applies: for % increase in Telomerase activity: PBMCs, 10 μg/ml PHA, 48 hours. As to the method: The assay was carried out using Telo TAGGG telomerase PCR ELISA kit (Roche). It allows highly specific amplification of telomerase mediated elongation products followed by detection through ELISA. In the first step telomerase adds the telomeric repeats (TTAGGG) tot eh 3′ end of the biotin labeled synthetic P1 primer. In the second step these elongation products are amplified using P2 and P1 primers generating telomerase specific 6 bp increments. PCR product is denatured and hybridized to a digioxigenin labeled telomere repeat specific detection probe. The resultant product is bound to a streptavidin specific miroplate via biotin labeled primer 1. The bound products are detected using anti digioxigenein antibody conjugated to horse radish peroxidase. The enzyme reaction is visualized using […] substrate.
2×10^5 PBMCs isolated from blood were seeded in RPMI 1640 medium in 6 well plates. Cells were treated with 10 μg/ml PHA along with different concentrations of ecdysterone/extracts containing ecdysterone. Cells were incubated in a humidified atmosphere with 5% CO2 for 48 hours. After 48 hours of incubation, cells were harvested and centrifuged at 3000 g for 10 minutes at 4° C. Supernatant was removed and PBS was added and centrifuged again. Pellet was suspended in lysis reagent on ice (TeloTAGGG™ Telomerase PCR ELISA). Suspension was retero pipetted at least thrice and incubated for 20 minutes on ice and centrifuged at 16000 g for 20 minutes at 4° C. TRAP assay followed by ELISA was performed as per manufacturer's instructions (TeloTAGGG™ Telomerase PCR ELISA, Merck).
(An ELISA detects its analyte on a solid surface through an enzyme-linked reagent.)

The source of these data is patent US10548902B1, “Telomerase enhancement potential of ecdysterone” (SAMI LABS LIMITED, priority 2018, dated 2020).

T1 sequence (O14746 whole entry): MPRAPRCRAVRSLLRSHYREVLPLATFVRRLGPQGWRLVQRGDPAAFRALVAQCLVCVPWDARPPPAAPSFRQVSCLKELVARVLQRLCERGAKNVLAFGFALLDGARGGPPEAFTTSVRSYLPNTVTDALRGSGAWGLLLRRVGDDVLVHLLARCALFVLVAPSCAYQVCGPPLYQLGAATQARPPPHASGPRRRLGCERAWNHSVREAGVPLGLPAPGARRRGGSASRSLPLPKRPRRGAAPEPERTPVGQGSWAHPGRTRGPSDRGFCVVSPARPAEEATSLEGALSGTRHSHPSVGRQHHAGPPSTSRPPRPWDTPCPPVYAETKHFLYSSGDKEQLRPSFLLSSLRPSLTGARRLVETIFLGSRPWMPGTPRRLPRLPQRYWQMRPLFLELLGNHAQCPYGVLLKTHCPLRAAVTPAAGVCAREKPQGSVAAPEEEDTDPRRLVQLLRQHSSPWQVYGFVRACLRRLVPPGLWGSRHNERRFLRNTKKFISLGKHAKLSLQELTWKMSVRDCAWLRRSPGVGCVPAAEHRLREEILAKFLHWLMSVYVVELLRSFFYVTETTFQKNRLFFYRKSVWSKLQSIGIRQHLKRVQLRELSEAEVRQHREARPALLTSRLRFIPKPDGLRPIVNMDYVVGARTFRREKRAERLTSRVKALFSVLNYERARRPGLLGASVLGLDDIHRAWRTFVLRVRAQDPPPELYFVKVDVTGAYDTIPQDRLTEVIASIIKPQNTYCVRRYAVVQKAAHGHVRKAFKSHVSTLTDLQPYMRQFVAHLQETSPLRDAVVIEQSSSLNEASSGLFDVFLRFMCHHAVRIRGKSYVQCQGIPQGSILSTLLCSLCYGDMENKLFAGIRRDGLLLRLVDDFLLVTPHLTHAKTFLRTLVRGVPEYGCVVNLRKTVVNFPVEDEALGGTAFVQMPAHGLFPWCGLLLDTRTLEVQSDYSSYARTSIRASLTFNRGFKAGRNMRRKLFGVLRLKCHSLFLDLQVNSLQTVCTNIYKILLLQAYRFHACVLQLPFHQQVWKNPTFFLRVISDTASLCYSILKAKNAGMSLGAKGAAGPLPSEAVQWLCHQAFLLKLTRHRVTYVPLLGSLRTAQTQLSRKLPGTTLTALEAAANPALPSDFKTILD

Consider `CC(C)(O)CC[C@@H](O)[C@](C)(O)[C@H]1CC[C@@]2(O)C3=CC(=O)[C@@H]4C[C@@H](O)[C@@H](O)C[C@]4(C)[C@H]3CC[C@]12C` [Ecdysterone, ecdysterone], for which the “increase in telomerase activity (in words)” value (concentrations of 0.062-0.25 μg/ml) was “significant increase”. For the same compound, the “% increase in Telomerase activity” value is listed as 62.1% (ecdysterone 0.062 μg/ml), 64.7% (ecdysterone 0.125 μg/ml), 63.31% (ecdysterone 0.25 μg/ml) and “Nil” (ecdysterone 0.5 μg/ml).
